The text below walks through data of patent publication US10188634B2, “3-(3H-imidazo[4,5-C]pyridin-2-yl)-1 H-pyrazolo[4,3-B]pyridines and therapeutic uses thereof” (Samumed, LLC, priority 2015, dated 2019).

What all share (type): cell-based
Test [1] concerns SW480 colon cancer cells. The experiment in a line: Cell viability assay (CellTiter-Blue) in SW480 colon cancer cells. The following applies: Homo sapiens, 96 h. The gist of the method: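 About 2×10^3 SW480 colon cancer cells per well were exposed to compound (8-point 1:3 dilutions, 10 μM to 0.004 μM) for four days at 37 °C. Viability was read by CellTiter-Blue resazurin reduction (~3 h, Ex 560/Em 590). EC50 from nonlinear regression; above 10 μM, % inhibition at 10 μM is reported.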

Test [2] relates to LL29 cells (primary human fibroblasts derived from IPF patients) treated with TGF-β1, α-smooth muscle actin. The experiment in a line: Inhibition of the fibrotic process: αSMA staining in TGF-β1 treated primary human fibroblasts from IPF patients (LL29 cells). The following applies: Fibroblast, 96 h.
Test [3] has as its system IL-6 in THP-1 cells. Kind of test: Inhibition of IL-6 in LPS-stimulated THP-1 human monocyte cells (HTRF). The following applies: 500 ng/mL LPS, 22 hours, IL-6 HTRF. The gist of the method:
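THP-1 cells, serum-reduced (1% FBS) for 24 h, were exposed to compound (1:3, 10-point series from 10 μM; 0.1% DMSO) for 2 h, then 500 ng/mL LPS for 22 h at 37° C. Secreted IL-6 measured by HTRF (665/620 ratio), normalised to DMSO; EC50 by four-parameter fit, else % inhibition at 10 μM.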

The structures appear in SMILES notation.

One may read the inhibition as the percentage by which the read-out fell short of the control. As a reminder, the EC50 is the concentration at which the effect is half-maximal. For `Cc1ccc(-c2cncc3[nH]c(-c4n[nH]c5ccc(-c6cncc(NC(=O)C7CCCC7)c6)nc45)nc23)s1` [Compound 386, N-(5-(3-(7-(5-Methylthiophen-2-yl)-3H-imidazo[4,5-c]pyridin-2-yl)-1H-pyrazolo[4,3-b]pyridin-5-yl)pyridin-3-yl)cyclopentanecarboxamide], the inhibition at 10 µM in test [1] (10 μM, four days, CellTiter-Blue, read-out: percent inhibition at 10 μM (given for EC50 of >10 μM)) turned out to be 0.9%; in test [2] (LL29 cells treated with TGF-β1, 4 days, at 10 μM, read-out: percent inhibition in brackets (given for EC50 >10 μM)), 0%. The EC50 is > 10 µM in test [1] (four days incubation, CellTiter-Blue cell viability); > 10 µM in test [2] (LL29 cells treated with TGF-β1 (20 ng/mL), 4 days); 0.351 µM in test [3].
